Kd, IC50 and DC50 data for eleven compounds are collected here from patent US20250074891A1 (Anaxis Pharma Pty Ltd., priority 2021, published 2025).

Where two headings read alike, the source gives them in different places. Where only a bound is given, the exact number is not on record here.

The target in one assay is MLKL (full length) (Homo sapiens (Human), UniProt Q8NB16). Briefly: KINOMEscan binding assay, MLKL (full length). As to the method: (§1) Kinase assays. For most assays, kinase-tagged T7 phage strains were grown in parallel in 24-well blocks in an E. coli host derived from the BL21 strain. E. coli were grown to log-phase and infected with T7 phage from a frozen stock (multiplicity of infection=0.4) and incubated with shaking at 32° C. until lysis (90-150 minutes).
Chain of MLKL (full length) (Q8NB16 whole entry): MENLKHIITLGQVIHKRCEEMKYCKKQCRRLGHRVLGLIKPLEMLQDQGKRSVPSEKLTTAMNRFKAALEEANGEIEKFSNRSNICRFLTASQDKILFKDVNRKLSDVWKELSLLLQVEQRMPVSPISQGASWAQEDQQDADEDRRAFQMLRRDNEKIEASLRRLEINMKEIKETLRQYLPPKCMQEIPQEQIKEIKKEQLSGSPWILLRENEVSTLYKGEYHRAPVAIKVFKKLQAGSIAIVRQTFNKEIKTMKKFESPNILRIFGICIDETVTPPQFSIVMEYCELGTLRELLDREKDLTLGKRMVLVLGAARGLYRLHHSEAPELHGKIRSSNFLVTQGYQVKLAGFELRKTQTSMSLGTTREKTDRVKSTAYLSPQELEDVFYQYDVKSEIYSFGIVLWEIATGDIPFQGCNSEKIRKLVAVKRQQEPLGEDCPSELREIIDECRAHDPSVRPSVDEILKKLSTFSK
(§2) The Hill Slope was set to −1.

In assay [1] the test system is U937 human histiocytic leukemia cell line. Description: Cellular assay: inhibition of TSQ induced necroptosis (CellTitre-Glo). To be noted: U937 cells, TSQ cocktail, 48 hours, read-out: Inhibition of TSQ-induced necroptosis (IC50 cell-based assay). A digest of the protocol: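 U937 cells (20,000/well) pre-dosed with compound (10-point, 1:3 from 36 μM, 0.3% DMSO), then TSQ (hTNF-Fc 100 ng/ml, Smac mimetic 500 nM, Q-VD-OPh 10 μM) for 48 h at 37 °C. Viability by CellTiter-Glo luminescence, normalised to DMSO (100%) and DMSO+TSQ (0%); IC50 from 4-parameter fit.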

Another assay concerns U937 cells. Briefly: Counter screen: cell viability without TSQ cocktail (off-target effect). Details: species or system human. As to the method:
Counter screen: In parallel, all compounds were tested for their ability to affect cell viability. The same U937 cells were treated with compound in DMSO without the TSQ cocktail. This counter screen enabled evaluation of off-target effects. In this case, cell viability was measured by CelltiterGlo.
(In general: A counterscreen serves to expose hits that act by an unwanted route or on another target.)

The target in the next assay is endogenous MLKL in U937 (Homo sapiens (Human), UniProt Q8NB16). Description: Degradation assay: degradation of endogenous MLKL in human cells (Western blot). To be noted: 24 h incubation, read-out: Degradation of endogenous MLKL in U937 (DC50 cell-based assay in μM). On the procedure: DEGRADATION ASSAY: Screening Compounds Procedure to Evaluate the Activity of Compounds in Degrading Endogenous MLKL in Human Cell
Chain of endogenous MLKL in U937 (Q8NB16 whole entry): as above
The human monocyte cell line (U937) was seeded on the day of the experiment in a 24-well plate at a cell density of 5*10^5 cells per well in a volume of 0.5 mL per well.
The compound was diluted in DMSO with a starting concentration of 10 mM and titrated stepwise with a dilution of 1:5. 0.5 μL of the compound dilution was added to the appropriate well to achieve a final concentration of 10; 2; 0.4; 0.08 and 0.016 μM. A DMSO only well was included as control.
The cells were incubated for 24 h in the presence of the compound at 37° C. and 10% CO2.
After the 24 h incubation period, the medium was removed and cells washed with 0.5 mL PBS. The cells were then lysed directly in 60 μL of 1×SDS gel loading buffer.
The cell lysate was heat-denatured at […] for 10 min. 10 μL of lysate per well were run on 18-well 4-15% Criterion TGX stain free gels (BIO-RAD). The proteins were then transferred onto nitrocellulose membrane with a wet transfer protocol in the Criterion Blotter (BIO-RAD).
Membranes were blocked with 5% skim milk in TBST. Primary antibody against MLKL (clone 3H1, MABC604 Merck) was used at 1:2000 dilution in TBST with 1% BSA and left shaking over night at 4° C. After washes with TBST, the membranes were incubated with goat anti-rat IgG HRP-conjugated antibody (Southern Biotech) in 1% skim milk TBST at 1:10000 dilution for 1 h at room temperature. After TBST washes the bands were imaged on the ChemiDoc MP Imaging Systm (BIO-RAD) with Immobilion Western Chemiluminescent HRP Substrate Forte (Millipore). The loading control GAPDH was probed for with rabbit anti-GAPDH (CST 14C10) at 1:2000 dilution in 1% BSA TBST over night at 4° C. TBST washes were followed by incubation with goat anti-rabbit IgG HRP-conjugated antibody (Southern Biotech) in 1% skim milk TBST at 1:10000 dilution for 1 h at room temperature followed by TBST washes. The signal was detected as described above.
The band intensity was measured in the ImageLab Software (BIO-RAD) and the MLKL values adjusted for loading with GAPDH. The percentage of degradation was calculated by normalizing the compound treated values to the DMSO only control.

Another assay concerns the target RIP1 (Homo sapiens (Human), UniProt Q13546). Briefly: KINOMEscan binding assay, RIP1. To be noted: Table 35.
The next assay concerns the target RIP3 (Homo sapiens (Human), UniProt Q9Y572). Briefly: KINOMEscan binding assay, RIP3. To be noted: Table 35. On the procedure:
as §1, §2

The mark [2] stands for this setting: Homo sapiens, U-937, Table 38, read-out: Off-target effect (IC50 cell-based assay).
Where [3] appears, read: Homo sapiens, U-937, Table 37, read-out: Off-target effect (IC50 cell-based assay).

Chain of RIP3 (Q9Y572 whole entry): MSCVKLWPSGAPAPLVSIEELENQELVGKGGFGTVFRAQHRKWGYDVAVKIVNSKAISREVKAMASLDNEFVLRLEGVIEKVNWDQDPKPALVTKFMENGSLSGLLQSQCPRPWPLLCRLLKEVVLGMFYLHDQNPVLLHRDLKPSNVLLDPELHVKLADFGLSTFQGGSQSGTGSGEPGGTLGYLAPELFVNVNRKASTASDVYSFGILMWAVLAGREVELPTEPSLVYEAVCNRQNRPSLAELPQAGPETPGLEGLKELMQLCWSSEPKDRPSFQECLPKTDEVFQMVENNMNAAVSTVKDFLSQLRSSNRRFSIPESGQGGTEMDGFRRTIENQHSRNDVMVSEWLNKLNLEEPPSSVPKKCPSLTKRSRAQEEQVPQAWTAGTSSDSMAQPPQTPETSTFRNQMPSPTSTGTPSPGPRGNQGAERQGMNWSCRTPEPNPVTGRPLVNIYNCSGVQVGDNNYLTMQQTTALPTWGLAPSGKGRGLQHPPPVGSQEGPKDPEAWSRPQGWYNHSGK
Chain of RIP1 (Q13546 whole entry): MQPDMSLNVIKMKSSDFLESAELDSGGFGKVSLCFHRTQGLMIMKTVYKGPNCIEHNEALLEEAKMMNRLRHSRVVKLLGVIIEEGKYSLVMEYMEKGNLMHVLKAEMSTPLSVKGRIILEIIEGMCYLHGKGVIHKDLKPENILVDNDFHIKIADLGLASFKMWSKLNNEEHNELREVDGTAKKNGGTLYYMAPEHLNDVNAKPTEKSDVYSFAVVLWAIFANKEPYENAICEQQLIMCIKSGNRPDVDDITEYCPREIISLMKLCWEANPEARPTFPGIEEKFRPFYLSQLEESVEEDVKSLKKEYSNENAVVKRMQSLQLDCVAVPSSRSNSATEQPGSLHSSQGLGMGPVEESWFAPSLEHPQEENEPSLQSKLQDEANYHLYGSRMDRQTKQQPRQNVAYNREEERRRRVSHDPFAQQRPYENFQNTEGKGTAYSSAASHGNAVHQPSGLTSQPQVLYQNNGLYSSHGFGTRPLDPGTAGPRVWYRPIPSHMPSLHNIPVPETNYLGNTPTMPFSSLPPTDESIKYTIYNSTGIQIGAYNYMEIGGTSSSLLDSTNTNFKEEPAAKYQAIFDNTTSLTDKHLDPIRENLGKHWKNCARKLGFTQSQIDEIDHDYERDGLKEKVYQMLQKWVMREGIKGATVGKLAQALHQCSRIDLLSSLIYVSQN

With `CCS(=O)(=O)Nc1ccc(-c2n[nH]c(Nc3ccc(C(=O)NCC(=O)N[C@@H](C(=O)N4C[C@@H](O)C[C@@H]4C(=O)NCc4ccc(-c5scnc5C)cc4)C(C)(C)C)cn3)c2C(N)=O)cc1O[C@H](C)c1ccc(F)cc1` (stereo in doubt) [Compound 1026, 3-{4-ethanesulfonamido-3-[(1R)-1-(4-fluorophenyl)ethoxy]phenyl}-5-({5-[({[(2R)-1-[(2R,4S)-4-hydroxy-2-({[4-(4-methyl-1,3-thiazol-5-yl)phenyl]methyl}carbamoyl)pyrrolidin-1-yl]-3,3-dimethyl-1-oxobutan-2-yl]carbamoyl}methyl)carbamoyl]pyridin-2-yl}amino)-1H-pyrazole-4-carboxamide], the Kd (as a rule, the free concentration of one partner at which half of the binding sites on the other are occupied at equilibrium, for simple one-to-one binding) on MLKL (full length) (Table 36) was below 0.01 µM. The IC50 (usually the concentration that inhibits the measured activity by half) in assay [1] (Homo sapiens, U-937, Table 38) is 1 to 10 µM; in the assay with U937 cells (setting [2]), above 10 µM. Further, the DC50 (commonly the concentration at which degradation of the target reaches its halfway point) at endogenous MLKL in U937 was in the range of 1 to 10 µM.

Consider `NC(=O)c1c(-c2ccc(NS(=O)(=O)Cc3cccc(Cl)c3)cc2)n[nH]c1Nc1cccc(C(F)(F)F)n1` [Compound 9, 3-(4-(((3-chlorophenyl)methyl)sulfonamido)phenyl)-5-((6-(trifluoromethyl)pyridin-2-yl)amino)-1H-pyrazole-4-carboxamide], for which the results for the Kd at MLKL (full length) (Table 35), on RIP1 and on RIP3 were below 0.01 µM, above 30 µM and above 30 µM, respectively. The IC50 in assay [1] (Homo sapiens, U-937, Table 37) was 0.01 to 1 µM; in the assay on U937 cells (setting [3]), above 30 µM.

On to `CCS(=O)(=O)Nc1ccc(-c2n[nH]c(Nc3cncc(C)n3)c2C(N)=O)cc1` [Compound 84, 3-(4-(ethylsulfonamido)phenyl)-5-((6-methylpyrazin-2-yl)amino)-1H-pyrazole-4-carboxamide], for which the Kd at MLKL (full length) (Table 35) is below 0.01 µM; at RIP1, above 30 µM; at RIP3, 1 to 30 µM. In addition, the IC50 in assay [1] (Homo sapiens, U-937, Table 37) was 1 to 30 µM; with U937 cells (setting [3]) it was above 30 µM.

Take `CCS(=O)(=O)Nc1ccc(-c2c(C(N)=O)c(Nc3cnccn3)nn2C)cc1` [Compound 222, 5-(4-(ethylsulfonamido)phenyl)-1-methyl-3-(pyrazin-2-ylamino)-1H-pyrazole-4-carboxamide]: the Kd is below 0.01 µM at MLKL (full length) (Table 35), above 30 µM at RIP1 and above 30 µM on RIP3. For the same compound, the IC50 is 1 to 30 µM in assay [1] (Homo sapiens, U-937, Table 37) and above 30 µM with U937 cells (setting [3]).

With `C[C@H](Oc1cc(-c2n[nH]c(Nc3cnccn3)c2C(N)=O)ccc1NS(=O)(=O)CC(F)(F)F)c1cccc(F)c1` [Compound 265, 3-{3-[(1S)-1-(3-fluorophenyl)ethoxy]-4-(2,2,2-trifluoroethanesulfonamido)phenyl}-5-[(pyrazin-2-yl)amino]-1H-pyrazole-4-carboxamide], the Kd was below 0.01 µM at MLKL (full length) (Table 35), above 30 µM at RIP1 and above 30 µM at RIP3. The half-maximal inhibitory concentration (IC50) in assay [1] (Homo sapiens, U-937, Table 37) was 1 to 30 µM; in the assay on U937 cells (setting [3]), above 30 µM.

As to `Cc1cc(Nc2[nH]nc(-c3ccc(NS(=O)(=O)C(F)F)c(O[C@@H](C)c4ccc(F)cc4)c3)c2C(N)=O)nn1C` [Compound 285, (S)-3-(4-((difluoromethyl)sulfonamido)-3-(1-(4-fluorophenyl)ethoxy)phenyl)-5-((1,5-dimethyl-1H-pyrazol-3-yl)amino)-1H-pyrazole-4-carboxamide], the Kd on MLKL (full length) (Table 35) was below 0.01 µM; on RIP1, above 30 µM; at RIP3, above 30 µM. Moreover, the IC50 in assay [1] (Homo sapiens, U-937, Table 37) is below 0.01 µM; in the assay on U937 cells (setting [3]), above 30 µM.

Consider `Cc1cnc(Nc2[nH]nc(-c3ccc(NS(=O)(=O)C(F)F)c(OCc4ccc(F)c(F)c4)c3)c2C(N)=O)cn1` [Compound 291, 3-(3-((3,4-difluoro-benzyl)oxy)-4-((difluoro-methyl)sulfon-amido)phenyl)-5-((5-methyl-pyrazin-2-yl)amino)-1H-pyrazole-4-carboxamide], for which the Kd at MLKL (full length) (Table 35) was below 0.01 µM; on RIP1, above 30 µM; at RIP3, above 30 µM. For the same compound, the IC50 was below 0.01 µM in assay [1] (Table 37) and 1 to 30 µM with U937 cells (Table 37, read-out: Off-target effect (IC50 cell-based assay)).

As for `Cc1ncsc1-c1ccc(CNC(=O)[C@@H]2C[C@@H](O)CN2C(=O)[C@@H](NC(=O)CCCCOc2ccc(Nc3[nH]nc(-c4ccc(NS(=O)(=O)C(F)F)c(OCc5ccc(F)cc5)c4)c3C(N)=O)nc2)C(C)(C)C)cc1` [Compound 1025, 3-[4-(difluoromethanesulfonamido)-3-[(4-fluorophenyl)methoxy]phenyl]-5-{[5-(4-{[(2S)-1-[(2S,4R)-4-hydroxy-2-({[4-(4-methyl-1,3-thiazol-5-yl)phenyl]methyl}carbamoyl)pyrrolidin-1-yl]-3,3-dimethyl-1-oxobutan-2-yl]carbamoyl}butoxy)pyridin-2-yl]amino}-1H-pyrazole-4-carboxamide], the IC50 in assay [1] (Homo sapiens, U-937, Table 38) is below 1 µM; in the assay with U937 cells (setting [2]), above 10 µM. Further, on endogenous MLKL in U937, the DC50 was below 1 µM.

On to `Cc1ncsc1-c1ccc(CNC(=O)[C@@H]2C[C@@H](O)CN2C(=O)[C@@H](NC(=O)c2ccc(COc3ccc(Nc4[nH]nc(-c5ccc(NS(=O)(=O)C(F)F)c(O[C@@H](C)c6ccc(F)cc6)c5)c4C(N)=O)nc3)cc2)C(C)(C)C)cc1` [Compound 1030, 3-[4-(difluoromethanesulfonamido)-3-[(1S)-1-(4-fluorophenyl)ethoxy]phenyl]-5-({5-[(4-{[(2S)-1-[(2S,4R)-4-hydroxy-2-({[4-(4-methyl-1,3-thiazol-5-yl)phenyl]methyl}carbamoyl)pyrrolidin-1-yl]-3,3-dimethyl-1-oxobutan-2-yl]carbamoyl}phenyl)methoxy]pyridin-2-yl}amino)-1H-pyrazole-4-carboxamide], for which the IC50 is below 1 µM in assay [1] (Homo sapiens, U-937, Table 38) and above 10 µM with U937 cells (setting [2]). At endogenous MLKL in U937, the DC50 is below 1 µM.

On MLKL (full length) (Table 36), `Cc1ncsc1-c1ccc(CNC(=O)[C@@H]2C[C@@H](O)CN2C(=O)[C@@H](NC(=O)CCCCOC(=O)c2ccc(Nc3[nH]nc(-c4ccc(NS(=O)(=O)C(F)F)c(OCc5ccc(F)cc5)c4)c3C(N)=O)nc2)C(C)(C)C)cc1` [Compound 1055, 4-{[(2S)-1-[(2S,4R)-4-hydroxy-2-({[4-(4-methyl-1,3-thiazol-5-yl)phenyl]methyl}carbamoyl)pyrrolidin-1-yl]-3,3-dimethyl-1-oxobutan-2-yl]carbamoyl}butyl 6-({4-carbamoyl-3-[4-(difluoromethanesulfonamido)-3-[(4-fluorophenyl)methoxy]phenyl]-1H-pyrazol-5-yl}amino)pyridine-3-carboxylate] returned an equilibrium dissociation constant (Kd) of 0.01 to 1 µM. The IC50 in assay [1] (Homo sapiens, U-937, Table 38) is below 1 µM; in the assay with U937 cells (setting [2]), above 10 µM.

With `CCS(=O)(=O)Nc1ccc(-c2n[nH]c(Nc3ccc(C(=O)OCCCCC(=O)N[C@H](C(=O)N4C[C@H](O)C[C@H]4C(=O)NCc4ccc(-c5scnc5C)cc4)C(C)(C)C)cn3)c2C(N)=O)cc1` [Compound 1060, 4-{[(2S)-1-[(2S,4R)-4-hydroxy-2-({[4-(4-methyl-1,3-thiazol-5-yl)phenyl]methyl}carbamoyl)pyrrolidin-1-yl]-3,3-dimethyl-1-oxobutan-2-yl]carbamoyl}butyl 6-{[4-carbamoyl-3-(4-ethanesulfonamidophenyl)-1H-pyrazol-5-yl]amino}pyridine-3-carboxylate], on MLKL (full length) (Table 36), the Kd fell in the range of 0.01 to 1 µM. Moreover, the IC50 in assay [1] (Homo sapiens, U-937, Table 38) is below 1 µM; in the assay on U937 cells (setting [2]), above 10 µM.
